“Also recorded” adds a separate entry of the source.

Series [1] deals with 15-hydroxy-prostaglandin-dehydrogenase. The series can be described thus: 15-Hydroxy-prostaglandin-dehydrogenase substrate test. The series is classed as in vitro ADME. Also noted: key: substrate; O: no substrate of the enzyme. The following applies: In this test the concentration of the compounds 1.10^-4 mole/lit. The method, then:
Beyond these tests it was determined according to P. Tolnay et al. (Acta Biochim. Biophys. Acad. Sci. Hung. 14, 67 (1979)) whether the compounds of the invention are substrates of the 15-hydroxy-prostaglandin-dehydrogenaseenzyme.

Series [2] has as its system guinea pig trachea. The series is described as follows: Smooth muscle contraction, trachea. It counts as cell-based. Also noted: key: +: contraction on trachea; O: inactive on trachea. The following applies: 1 μg/ml. From the text: (§1) The compounds prepared according to the process of the invention were submitted to several tests developed for detecting the effects of 9α, 11α, 15(S)-trihydroxy-5-cis, 13-trans-prostadienoic acid (PGF2α). From the organs containing smooth muscle guinea pig trachea, ileum and rat uterine horn were used in the trials. The organs were suspended in isotonic salt medium and the potency was registered on the basis of isotonic contractions (Pharmacological Experiments on Isolated Preparations, Ed. W. L. M. Perry and E. S. Livingstone, Edinburgh and London (1970)). The effect exerted on the aggregation of human blood platelets, induced by 5.10^-5 mole/lit. of adenosine-5'-phosphate, was measured in a CHRONO LOG Aggregometer according to A. V. R. Born (J. Physiol. 162, 67 (1962)).

The test system of series [3] is guinea pig ileum. The series is described as follows: Smooth muscle contraction, ileum. To be noted: PGF2α = 1.00. The series is classed as cell-based.
Description: as §1

Series [4] has as its system rat uterine horn. The series is described as follows: Smooth muscle contraction, uterus. To be noted: PGF2α = 1.00. The series is classed as cell-based.
Description: as §1

Series [5] concerns human blood platelets. The series can be described thus: Inhibition of blood platelet aggregation. The series is classed as cell-based. The following applies: 100 μg/ml, induced by 5.10^-5 mole/lit. of adenosine-5'-phosphate.
Description: as §1

Series [6] deals with white mice on the 17th or 18th day of pregnancy. The series can be described thus: Abortive effect in pregnant mice. The series is classed as in vivo. The following applies: s.c.; for ED50: Mus musculus, sc, 48 h, body weight, white mice, 17th or 18th day of pregnancy, 5 animals per group. The method, then: (§2) The favorable biological properties of the new compounds of the invention are clearly manifested in their abortive effect. The test materials were administered subcutaneously to white mice on the 17th or 18th day of pregnancy, then the deliveries were followed up in the subsequent 48 hours, and the overall status of the excised uterus (scars, embrional residual debris) was evaluated (M. J. R. Harper et al.: Advances in Biosciences 9, 789 (1973)). In groups containing 5 animals the dose effect relationships of PGF2α, its methyl ester, as well as of the new 16-amino-prostaglandin derivatives were determined.

A short description of series [7]: Laxative effect (diarrhea) at abortive doses. The series is classed as in vivo, white mice. The procedure: as §2

Take `CCCC[C@@H](N)C(O)/C=C/[C@@H]1[C@@H](C/C=C\CCCC(=O)O)[C@@H](O)C[C@H]1O` (single isomer, unassigned): the “15-Hydroxy-prostaglandin-dehydrogenase (substrate or no substrate)” value in series [1] is reported as “O”. In series [2], the “Smooth muscle contraction Trachea” value was “O”. Also, in series [3], the “Smooth muscle contraction relative efficiency Ileum” value came out at 0.02. In addition, the “Smooth muscle contraction relative efficiency Uterus” value in series [4] worked out at 0.13.

As to `CCCC[C@@H](N)C(O)/C=C/[C@@H]1[C@@H](C/C=C\CCCC(=O)OC)[C@@H](O)C[C@H]1O` (single isomer, unassigned), the “15-Hydroxy-prostaglandin-dehydrogenase (substrate or no substrate)” value in series [1] is recorded as “O”. The “Smooth muscle contraction Trachea” value in series [2] was “O”. For the same compound, the “Smooth muscle contraction relative efficiency Ileum” value in series [3] amounted to 0.02. The “Smooth muscle contraction relative efficiency Uterus” value in series [4] was 0.05.

In general, inhibition refers to the change of the read-out against control, counted positive when it falls. With `CCCC[C@H](N)C(O)/C=C/[C@@H]1[C@@H](C/C=C\CCCC(=O)O)[C@@H](O)C[C@H]1O` (single isomer, unassigned), the “15-Hydroxy-prostaglandin-dehydrogenase (substrate or no substrate)” value in series [1] is “O”. Besides, the “Smooth muscle contraction relative efficiency Ileum” value in series [3] is reported as 0.11. For the same compound, the “Smooth muscle contraction relative efficiency Uterus” value in series [4] was determined as 0.83. Besides, in series [5], the inhibition at 100 µg/mL came to 75%.

Usually ED50 stands for the midpoint of the dose-response relation. For the compound `CCCC[C@H](N)C(O)/C=C/[C@@H]1[C@@H](C/C=C\CCCC(=O)OC)[C@@H](O)C[C@H]1O` (single isomer, unassigned), the “15-Hydroxy-prostaglandin-dehydrogenase (substrate or no substrate)” value in series [1] is on record as “O”. Further, the “Smooth muscle contraction Trachea” value in series [2] was “O”. Moreover, the “Smooth muscle contraction relative efficiency Ileum” value in series [3] amounted to 0.17. The “Smooth muscle contraction relative efficiency Uterus” value in series [4] turned out to be 0.99. Further, at 100 µg/mL the inhibition in series [5] was 52%. Further, the 50% effect level in series [6] (ED50) was put at a dose of 0.1 mg/kg. In series [6] (mice, compared to PGF2α, listed as 9 α, 11 α, 15(ksi)-trihydroxy-16(S)-amino-5-cis, 13-trans-prostadienoic acid met), the “abortive potency (in words)” value is “exceedingly high abortive effect; also recorded: the most active agent”. Further, the diarrhea entry in series [7] (even at the tenfold of the abortive dose) is on record as “no diarrhea is observed”.

On to `CCCCC[C@H](O)/C=C/[C@@H]1[C@@H](C/C=C\CCCC(=O)OC)[C@@H](O)C[C@H]1O` [PGF2α methyl ester, reference compound], for which the “15-Hydroxy-prostaglandin-dehydrogenase (substrate or no substrate)” value in series [1] is “s”. Moreover, the “Smooth muscle contraction Trachea” value in series [2] is “+”. Also, the “Smooth muscle contraction relative efficiency Ileum” value in series [3] was found to be 0.78. The “Smooth muscle contraction relative efficiency Uterus” value in series [4] was 1.25. In addition, the inhibition at 100 µg/mL in series [5] was found to be 56%. In series [6], this compound yielded an ED50 of 6 mg/kg. The laxative effect result in series [7] (at abortive doses) is reported as “exhibit also a laxative effect”.

For `CCCCC[C@H](O)/C=C/[C@@H]1[C@@H](C/C=C\CCCC(=O)O)[C@@H](O)C[C@H]1O` [PGF2α, 9α, 11α, 15(S)-trihydroxy-5-cis, 13-trans-prostadienoic acid, reference compound], in series [1], the “15-Hydroxy-prostaglandin-dehydrogenase (substrate or no substrate)” value is on record as “s”. Also, the “Smooth muscle contraction Trachea” value in series [2] is on record as “+”. The “Smooth muscle contraction relative efficiency Ileum” value in series [3] is reported as 1.00. In addition, the “Smooth muscle contraction relative efficiency Uterus” value in series [4] turned out to be 1.00. This compound gave an inhibition at 100 µg/mL in series [5] of 82%. The compound also had an ED50 in series [6] of 20 mg/kg. Also, in series [7] (mouse, in vivo), the laxative effect result is given as “exhibit also a laxative effect”.

(Values after US4372973A, “16-Amino-postaglandin derivatives, their acid addition salts, and a process for the preparation thereof” (priority 1981, dated 1983).)
